Source: ChEMBL document CHEMBL1201862, “PubChem BioAssay data set” (2004)
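Assay format: 96-well plates, 48-hour exposure. Abbreviation: GI50, concentration required for 50% inhibition of growth.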 The source made the active and inactive calls. Rule as the data show it: active = GI50 up to about 1.1 µM and inactive = higher.

Columns and labels:
Test in all cases: DTP human tumour cell line panel, 48 h
SK-MEL-5 = tested on: SK-MEL-5
SW-620 = tested on: SW-620
HCT-15 = tested on: HCT-15
EKVX = tested on: EKVX
OVCAR-8 = tested on: OVCAR-8
786-0 = tested on: 786-0
HT-29 = tested on: HT-29
NCI-H226 = tested on: NCI-H226
SF-268 = tested on: SF-268
BT-549 = tested on: BT-549
HOP-62 = tested on: HOP-62
SN12C = tested on: SN12C
UACC-257 = tested on: UACC-257
U-251 = tested on: U-251
HL-60 = tested on: HL-60
SR = tested on: SR
RXF 393 = tested on: RXF 393
MCF7 = tested on: MCF7
MDA-N = tested on: MDA-N
SNB-19 = tested on: SNB-19
HOP-92 = tested on: HOP-92
IGROV-1 = tested on: IGROV-1
NCI-H23 = tested on: NCI-H23
SK-MEL-2 = tested on: SK-MEL-2
TK-10 = tested on: TK-10
OVCAR-4 = tested on: OVCAR-4
ACHN = tested on: ACHN
OVCAR-5 = tested on: OVCAR-5
HCT-116 = tested on: HCT-116
PC-3 = tested on: PC-3
DU-145 = tested on: DU-145
A498 = tested on: A498
UO-31 = tested on: UO-31
RPMI-8226 = tested on: RPMI-8226
NCI/ADR-RES = tested on: NCI/ADR-RES
T47D = tested on: T47D
SK-MEL-28 = tested on: SK-MEL-28
CCRF-CEM = tested on: CCRF-CEM
CAKI-1 = tested on: CAKI-1
MDA-MB-435 = tested on: MDA-MB-435
LOX IMVI = tested on: LOX IMVI
KM12 = tested on: KM12
K562 = tested on: K562
SF-539 = tested on: SF-539
OVCAR-3 = tested on: OVCAR-3
M14 = tested on: M14
HCC 2998 = tested on: HCC 2998
Malme-3M = tested on: Malme-3M
A549 = tested on: A549
MOLT-4 = tested on: MOLT-4
MDA-MB-231 = tested on: MDA-MB-231
NCI-H460 = tested on: NCI-H460
NCI-H522 = tested on: NCI-H522
COLO 205 = tested on: COLO 205
UACC-62 = tested on: UACC-62
Hs-578T = tested on: Hs-578T
SF-295 = tested on: SF-295
SK-OV-3 = tested on: SK-OV-3
SNB-75 = tested on: SNB-75

## Nc1ccc(Oc2ccc(C3(c4ccc(Oc5ccc(N)c(O)c5)cc4)C4CC5CC(C4)CC3C5)cc2)cc1O
SK-MEL-5
  GI50: 1.58 µM (inactive)
SW-620
  GI50: 1.77 µM (inactive)
HCT-15
  GI50: 1.73 µM
EKVX
  GI50: 2.2 µM (inactive)
OVCAR-8
  GI50: 1.7 µM (inactive)
786-0
  GI50: 1.82 µM (inactive)
HT-29
  GI50: 1.64 µM (inactive)
NCI-H226
  GI50: 1.83 µM (inactive)
SF-268
  GI50: 1.53 µM (inactive)
BT-549
  GI50: 1.66 µM (inactive)
HOP-62
  GI50: 2.5 µM (inactive)
SN12C
  GI50: 1.9 µM (inactive)
UACC-257
  GI50: 2.12 µM (inactive)
U-251
  GI50: 1.7 µM (inactive)
HL-60
  GI50: 2.11 µM (inactive)
SR
  GI50: 1.17 µM (inactive)
RXF 393
  GI50: 1.73 µM (inactive)
MCF7
  GI50: 1.67 µM (inactive)
MDA-N
  GI50: 2.03 µM (inactive)
SNB-19
  GI50: 2.4 µM (inactive)
HOP-92
  GI50: 2.92 µM (inactive)
IGROV-1
  GI50: 1.75 µM (inactive)
NCI-H23
  GI50: 1.91 µM (inactive)
SK-MEL-2
  GI50: 1.86 µM (inactive)
TK-10
  GI50: 2.12 µM (inactive)
OVCAR-4
  GI50: 2.43 µM (inactive)
ACHN
  GI50: 1.82 µM (inactive)
OVCAR-5
  GI50: 2.35 µM (inactive)
HCT-116
  GI50: 1.5 µM (inactive)
PC-3
  GI50: 1.68 µM (inactive)
DU-145
  GI50: 1.82 µM (inactive)
A498
  GI50: 5.74 µM (inactive)
UO-31
  GI50: 1.92 µM (inactive)
RPMI-8226
  GI50: 1.97 µM (inactive)
NCI/ADR-RES
  GI50: 2.35 µM (inactive)
T47D
  GI50: 3.27 µM (inactive)
SK-MEL-28
  GI50: 1.84 µM (inactive)
CCRF-CEM
  GI50: 2.82 µM (inactive)
CAKI-1
  GI50: 2.47 µM (inactive)
MDA-MB-435
  GI50: 2.02 µM (inactive)
LOX IMVI
  GI50: 1.81 µM (inactive)
KM12
  GI50: 1.91 µM (inactive)
K562
  GI50: 2.04 µM (inactive)
SF-539
  GI50: 1.12 µM (active)
OVCAR-3
  GI50: 1.56 µM (inactive)
M14
  GI50: 1.71 µM (inactive)
HCC 2998
  GI50: 1.65 µM (inactive)
Malme-3M
  GI50: 2.3 µM (inactive)
A549
  GI50: 1.81 µM (inactive)
MOLT-4
  GI50: 1.66 µM (inactive)
MDA-MB-231
  GI50: 1.82 µM (inactive)
NCI-H460
  GI50: 1.73 µM (inactive)
NCI-H522
  GI50: 1.73 µM (inactive)
COLO 205
  GI50: 0.484 µM (active)
UACC-62
  GI50: 2.69 µM (inactive)
Hs-578T
  GI50: 2.24 µM (inactive)
SF-295
  GI50: 3.06 µM (inactive)
SK-OV-3
  GI50: 2.45 µM (inactive)

## CCOC(=O)CCC(NC(=O)c1ccc(OCc2nc3ccccc3n3cccc23)cc1)C(=O)OCC (centres undefined)
SK-MEL-5
  GI50: 93.3 µM (inactive)
SW-620
  GI50: 11.6 µM (inactive)
HCT-15
  GI50: 50.6 µM
EKVX
  GI50: > 100 µM (inactive)
OVCAR-8
  GI50: 33.5 µM (inactive)
786-0
  GI50: 74.3 µM (inactive)
HT-29
  GI50: 25.5 µM (inactive)
NCI-H226
  GI50: > 100 µM (inactive)
SNB-75
  GI50: 29.2 µM (inactive)
SF-268
  GI50: 49.3 µM (inactive)
BT-549
  GI50: 71.9 µM (inactive)
HOP-62
  GI50: 38 µM (inactive)
SN12C
  GI50: > 100 µM (inactive)
UACC-257
  GI50: 87.5 µM (inactive)
U-251
  GI50: 17.3 µM (inactive)
HL-60
  GI50: 11.5 µM (inactive)
SR
  GI50: 9.62 µM (inactive)
RXF 393
  GI50: 36.6 µM (inactive)
MCF7
  GI50: 39.2 µM (inactive)
MDA-N
  GI50: > 100 µM (inactive)
SNB-19
  GI50: 55.5 µM (inactive)
HOP-92
  GI50: 45.6 µM (inactive)
IGROV-1
  GI50: 31.6 µM (inactive)
NCI-H23
  GI50: 29.9 µM (inactive)
SK-MEL-2
  GI50: > 100 µM (inactive)
TK-10
  GI50: > 100 µM (inactive)
OVCAR-4
  GI50: 59.7 µM (inactive)
ACHN
  GI50: 54.5 µM (inactive)
OVCAR-5
  GI50: > 100 µM (inactive)
HCT-116
  GI50: 36.3 µM (inactive)
PC-3
  GI50: 26.6 µM (inactive)
DU-145
  GI50: 74.1 µM (inactive)
A498
  GI50: > 100 µM (inactive)
UO-31
  GI50: > 100 µM (inactive)
NCI/ADR-RES
  GI50: > 100 µM (inactive)
T47D
  GI50: 20 µM (inactive)
SK-MEL-28
  GI50: > 100 µM (inactive)
CCRF-CEM
  GI50: 4.34 µM (inactive)
CAKI-1
  GI50: > 100 µM (inactive)
MDA-MB-435
  GI50: 80.4 µM (inactive)
LOX IMVI
  GI50: 42.8 µM (inactive)
KM12
  GI50: 4.83 µM (inactive)
K562
  GI50: 16.5 µM (inactive)
SF-539
  GI50: 46.8 µM (inactive)
OVCAR-3
  GI50: 63.7 µM (inactive)
M14
  GI50: 63.2 µM (inactive)
HCC 2998
  GI50: > 100 µM (inactive)
Malme-3M
  GI50: > 100 µM (inactive)
A549
  GI50: > 100 µM (inactive)
MOLT-4
  GI50: 1.65 µM (inactive)
MDA-MB-231
  GI50: > 100 µM (inactive)
NCI-H460
  GI50: > 100 µM (inactive)
NCI-H522
  GI50: 6.59 µM (inactive)
COLO 205
  GI50: > 100 µM (inactive)
UACC-62
  GI50: > 100 µM (inactive)
Hs-578T
  GI50: 64.4 µM (inactive)
SF-295
  GI50: 64.3 µM (inactive)
SK-OV-3
  GI50: > 100 µM (inactive)

## Cc1cc2nc3c(C(O)CO)nn(-c4ccccc4)c3nc2cc1C (centres undefined)
SK-MEL-5
  GI50: 30.9 µM (inactive)
SW-620
  GI50: 20.5 µM (inactive)
HCT-15
  GI50: 14.9 µM
EKVX
  GI50: 19.6 µM (inactive)
OVCAR-8
  GI50: 23.2 µM (inactive)
786-0
  GI50: 17.9 µM (inactive)
HT-29
  GI50: 15 µM (inactive)
NCI-H226
  GI50: 30.6 µM (inactive)
SNB-75
  GI50: 22.4 µM (inactive)
SF-268
  GI50: 23.7 µM (inactive)
BT-549
  GI50: 18.8 µM (inactive)
HOP-62
  GI50: 19.4 µM (inactive)
SN12C
  GI50: 13.8 µM (inactive)
UACC-257
  GI50: 22 µM (inactive)
U-251
  GI50: 15.2 µM (inactive)
HL-60
  GI50: 21.6 µM (inactive)
SR
  GI50: 6.65 µM (inactive)
RXF 393
  GI50: 14.5 µM (inactive)
MCF7
  GI50: 20.2 µM (inactive)
MDA-N
  GI50: 18.3 µM (inactive)
SNB-19
  GI50: 22.9 µM (inactive)
HOP-92
  GI50: 15.5 µM (inactive)
IGROV-1
  GI50: 17.3 µM (inactive)
NCI-H23
  GI50: 23 µM (inactive)
SK-MEL-2
  GI50: 21.4 µM (inactive)
TK-10
  GI50: 14 µM (inactive)
OVCAR-4
  GI50: 20.2 µM (inactive)
ACHN
  GI50: 14.4 µM (inactive)
OVCAR-5
  GI50: 22.3 µM (inactive)
HCT-116
  GI50: 15.3 µM (inactive)
PC-3
  GI50: 14.4 µM (inactive)
DU-145
  GI50: 15.4 µM (inactive)
A498
  GI50: 12.1 µM (inactive)
UO-31
  GI50: 15.1 µM (inactive)
RPMI-8226
  GI50: 6.21 µM (inactive)
NCI/ADR-RES
  GI50: 16.1 µM (inactive)
T47D
  GI50: 11.5 µM (inactive)
SK-MEL-28
  GI50: 20.7 µM (inactive)
CAKI-1
  GI50: 15.8 µM (inactive)
MDA-MB-435
  GI50: 21.2 µM (inactive)
LOX IMVI
  GI50: 20.5 µM (inactive)
KM12
  GI50: 16.2 µM (inactive)
K562
  GI50: 12.9 µM (inactive)
SF-539
  GI50: 20.7 µM (inactive)
OVCAR-3
  GI50: 15.8 µM (inactive)
M14
  GI50: 31.3 µM (inactive)
A549
  GI50: 12.9 µM (inactive)
MOLT-4
  GI50: 4.3 µM (inactive)
MDA-MB-231
  GI50: 22.1 µM (inactive)
NCI-H460
  GI50: 12.7 µM (inactive)
NCI-H522
  GI50: 22.6 µM (inactive)
Hs-578T
  GI50: 31.6 µM (inactive)
SF-295
  GI50: 15.7 µM (inactive)
